The results in this text go back to patent publication US10968177B2, “Tricyclic sulfones as RORγ modulators” (BRISTOL-MYERS SQUIBB COMPANY, priority 2016, dated 2021).

In the assay the target is T1, RORγ (Homo sapiens, UniProt P51449).
T1 construct: Jurkat pEx/Gal/hRORγ CLBD/HYG pG5luc/blast; expressed in transfected cells
T1 sequence (P51449 269-508 limits assumed): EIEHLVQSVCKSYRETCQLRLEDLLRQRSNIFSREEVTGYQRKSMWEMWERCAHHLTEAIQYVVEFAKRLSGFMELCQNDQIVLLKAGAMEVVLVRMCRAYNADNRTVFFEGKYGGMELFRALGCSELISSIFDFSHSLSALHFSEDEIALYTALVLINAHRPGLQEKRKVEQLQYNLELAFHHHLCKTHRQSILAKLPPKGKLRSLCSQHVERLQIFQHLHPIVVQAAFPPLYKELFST
In words: RORγ Gal4 reporter assay (Gal4-luciferase reporter in Jurkat cells). Particulars: inhibition of luminescence (inverse agonist activity); Jurkat cells stably over-expressing hRORγ; incubated overnight. The class given is cell-based. The procedure:
General RORγ Gal4 Reporter Assay
Inverse agonist activity of potential ligands to RORγ was measured by inhibition of luminescence in a Gal4-luciferase reporter assay in Jurkat cells.
Jurkat cells stably over-expressing the RORγ receptor, Jurkat pEx/Gal/hRORγ CLBD/HYG pG5luc/blast, were plated at a concentration of 10,000 cells/well in a 384-well solid white cell culture plate (Perkin Elmer #6007899) in assay buffer RPMI 1640 (Gibco 11875-085 1L) containing 0.1% BSA, 100×HEPES (Gibco 15360-080), 100 mM sodium pyruvate (Gibco 11360-040), […] Hygromycin B (Invitrogen 10687-010) and 10 mg/mL blasticidin (Invitrogen R210-01). 100 nL of test compound in a 3-fold serial dilution, with final concentrations ranging from 40 μM to 0.67 nM, were added to the cells which were then incubated overnight.
The following day, cells were lysed with 10 μL of Steady-Glo Luciferase Assay System (Promega Cat. No. EZ550), and analyzed immediately. IC50 values were determined. The IC50 value is defined as the concentration of test compound needed to reduce luciferase activity by 50% and is calculated using the four parameter logistic equation to fit the normalized data.
A general note: In a reporter assay the amount or activity of a reporter protein is the signal.
The IC50 is the concentration that gives 50% inhibition. Low values mean greater potency in that assay, high ones weaker potency in that assay. Take `N=S1(=O)CCC(C(=O)N2CC[C@@]3(S(=O)(=O)c4ccc(F)cc4)c4ccc(C(F)(C(F)(F)F)C(F)(F)F)cc4CC[C@@H]23)CC1` (mixture of isomers) [Example 7, ((3aR,9bR)-9b-((4-fluorophenyl)sulfonyl)-7-(perfluoropropan-2-yl)-1,2,3a,4,5,9b-hexahydro-3H-benzo[e]indol-3-yl)(1-imino-1-oxidohexahydro-1λ^6-thiopyran-4-yl)methanone]: the IC50 worked out at 28 nM.
In turn, `N=S1(=O)CCC(O)(C(=O)N2CC[C@@]3(S(=O)(=O)c4ccc(F)cc4)c4ccc(C(F)(C(F)(F)F)C(F)(F)F)cc4CC[C@@H]23)CC1` (mixture of isomers) [Example 9, ((3aR)-9b-((4-fluorophenyl)sulfonyl)-7-(perfluoropropan-2-yl)-4,5-dihydro-1H-benzo[e]indol-3(2H,3aH,9bH)-yl)(4-hydroxy-1-imino-1-oxidotetrahydro-2H-thiopyran-4-yl)methanone] displayed an IC50 of 14 nM.
`N=S1(=O)CCC(C(=O)N2CCC3(S(=O)(=O)c4cccc(F)c4)c4ccc(C(F)(C(F)(F)F)C(F)(F)F)cc4CCC23)CC1` (single isomer, unassigned) [Example 1, (9b-((3-fluorophenyl)sulfonyl)-7-(perfluoropropan-2-yl)-1,2,3a,4,5,9b-hexahydro-3H-benzo[e]indol-3-yl)(1-imino-1-oxidohexahydro-1λ^6-thiopyran-4-yl)methanone]: the IC50 is 40 nM.
The figure for `N=S1(=O)CCC(C(=O)N2CCC3(S(=O)(=O)c4cccc(Cl)c4)c4ccc(C(F)(C(F)(F)F)C(F)(F)F)cc4CCC23)CC1` (single isomer, unassigned) [Example 2] is 57 nM; for `N=S1(=O)CCC(C(=O)N2CCC3(S(=O)(=O)c4ccccc4)c4ccc(C(F)(C(F)(F)F)C(F)(F)F)cc4CCC23)CC1` (single isomer, unassigned) [Example 3] it is 56 nM.
The figure for `N=S1(=O)CCC(C(=O)N2CCC3(S(=O)(=O)c4ccc(F)cc4)c4ccc(C(F)(C(F)(F)F)C(F)(F)F)cc4OCC23)CC1` (single isomer, unassigned) [Example 4] is 246 nM; for `N=S1(=O)CCC(C(=O)N2CCC3(S(=O)(=O)c4ccc(Cl)cc4)c4ccc(C(F)(C(F)(F)F)C(F)(F)F)cc4CCC23)CC1` (single isomer, unassigned) [Example 5] it is 58 nM.
In turn, `N=S1(=O)CCC(C(=O)N2CCC3(S(=O)(=O)c4ccc(F)cc4)c4ccc(C(F)(C(F)(F)F)C(F)(F)F)cc4NCC23)CC1` (single isomer, unassigned) [Example 6, (9b-((4-fluorophenyl)sulfonyl)-7-(perfluoropropan-2-yl)-1,2,3a,4,5,9b-hexahydro-3H-pyrrolo[2,3-c]quinolin-3-yl)(1-imino-1-oxidohexahydro-1λ^6-thiopyran-4-yl)methanone] had an IC50 of 51 nM.
The figure for `N=S1(=O)CCC(C(=O)N2CC[C@@]3(S(=O)(=O)c4ccc(F)cc4)c4ccc(C(F)(C(F)(F)F)C(F)(F)F)cc4CC[C@@H]23)CC1` (single isomer, unassigned) [Example 11] is 39 nM; for `N=S1(=O)CCC(C(=O)N2CC[C@@]3(S(=O)(=O)c4ccc(F)cc4)c4ccc(C(F)(C(F)(F)F)C(F)(F)F)cc4CC[C@@H]23)CC1` (single isomer, unassigned) [Example 12] it is 56 nM.
With `CN=S1(=O)CCC(C(=O)N2CC[C@@]3(S(=O)(=O)c4ccc(F)cc4)c4ccc(C(F)(C(F)(F)F)C(F)(F)F)cc4CC[C@@H]23)CC1` (single isomer, unassigned) [Example 13] the figure was 26 nM; with `CN=S1(=O)CCC(C(=O)N2CC[C@@]3(S(=O)(=O)c4ccc(F)cc4)c4ccc(C(F)(C(F)(F)F)C(F)(F)F)cc4CC[C@@H]23)CC1` (single isomer, unassigned) [Example 14], 40 nM.
The compound `CC(=O)N=S1(=O)CCC(C(=O)N2CC[C@@]3(S(=O)(=O)c4ccc(F)cc4)c4ccc(C(F)(C(F)(F)F)C(F)(F)F)cc4CC[C@@H]23)CC1` (single isomer, unassigned) [Example 15] had an IC50 of 49 nM.
With `CC(=O)N=S1(=O)CCC(C(=O)N2CC[C@@]3(S(=O)(=O)c4ccc(F)cc4)c4ccc(C(F)(C(F)(F)F)C(F)(F)F)cc4CC[C@@H]23)CC1` (single isomer, unassigned) [Example 16] the figure was 77 nM.
`N=S1(=O)CCC(F)(C(=O)N2CC[C@@]3(S(=O)(=O)c4ccc(F)cc4)c4ccc(C(F)(C(F)(F)F)C(F)(F)F)cc4CC[C@@H]23)CC1` (single isomer, unassigned) [Example 18] came in with an IC50 of 52 nM.
The figure for `N=S1(=O)CCC(F)(C(=O)N2CC[C@@]3(S(=O)(=O)c4ccc(F)cc4)c4ccc(C(F)(C(F)(F)F)C(F)(F)F)cc4CC[C@@H]23)CC1` (single isomer, unassigned) [Example 19] is 60 nM.
On to `CC1(C(=O)N2CC[C@@]3(S(=O)(=O)c4ccc(F)cc4)c4ccc(C(F)(C(F)(F)F)C(F)(F)F)cc4CC[C@@H]23)CCS(=N)(=O)CC1` (stereo partly shown) [Example 8], for which the half-maximal inhibitory concentration (IC50) was found to be 34 nM.
With `N#CC1(C(=O)N2CC[C@@]3(S(=O)(=O)c4ccc(F)cc4)c4ccc(C(F)(C(F)(F)F)C(F)(F)F)cc4CC[C@@H]23)CCS(=N)(=O)CC1` (stereo partly shown) [Example 10] the figure was 48 nM.
With `CN1CC2N(C(=O)C3CCS(=N)(=O)CC3)CCC2(S(=O)(=O)c2ccc(F)cc2)c2ccc(C(F)(C(F)(F)F)C(F)(F)F)cc21` (stereo not shown) [Example 17] the figure was 21 nM.
